Laboratory results: patent publication US11051515B2, “3-acyl-benzamides and their use as herbicides” (Bayer Aktiengesellschaft, priority 2017, dated 2021)

Tests used:
[1] = test system: ALOMY; test: Pre-emergence action against ALOMY; assay type: in vivo, Alopecurus myosuroides; conditions: dosage 320 g/ha; pre-emergence; scored visually after 3 weeks vs untreated controls; 100% = plants have died, 0% = like control plants
In short: (§1)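 Seeds sown in sandy loam in wood-fiber pots and covered with soil. Greenhouse growth; visual damage scored after 3 weeks versus untreated controls (100% = dead, 0% = like control).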

[2] = test system: AVEFA; test: Pre-emergence action against AVEFA; assay type: in vivo, Avena fatua; conditions: dosage 320 g/ha, scored visually after 3 weeks vs untreated controls
In short: as §1

[3] = test system: DIGSA; test: Pre-emergence action against DIGSA; assay type: in vivo, Digitaria sanguinalis; conditions: dosage 320 g/ha, scored visually after 3 weeks vs untreated controls
In short: as §1

[4] = test system: ECHCG; test: Pre-emergence action against ECHCG; assay type: in vivo, Echinochloa crus-galli; conditions: pre-emergence, dosage 320 g/ha, scored visually after 3 weeks vs untreated controls
In short: as §1

[5] = test system: LOLRI; test: Pre-emergence action against LOLRI; assay type: in vivo, Lolium rigidum; conditions: dosage 320 g/ha, scored visually after 3 weeks vs untreated controls
In short: as §1

[6] = test system: SETVI; test: Pre-emergence action against SETVI; assay type: in vivo, Setaria viridis; conditions: pre-emergence, dosage 320 g/ha, scored visually after 3 weeks vs untreated controls
In short: as §1

[7] = test system: ABUTH; test: Pre-emergence action against ABUTH; assay type: in vivo, Abutilon theophrasti; conditions: pre-emergence, dosage 320 g/ha, scored visually after 3 weeks vs untreated controls
In short: as §1

[8] = test system: AMARE; test: Pre-emergence action against AMARE; assay type: in vivo, Amaranthus retroflexus; conditions: pre-emergence, dosage 320 g/ha, scored visually after 3 weeks vs untreated controls
In short: as §1

[9] = test system: MATIN; test: Pre-emergence action against MATIN; assay type: in vivo, Matricaria inodora; conditions: Dosage 320 g/ha, pre-emergence
In short: as §1

[10] = test system: PHBPU; test: Pre-emergence action against PHBPU; assay type: in vivo, Pharbitis purpurea; conditions: Dosage 320 g/ha, pre-emergence
In short: as §1

[11] = test system: STEME; test: Pre-emergence action against STEME; assay type: in vivo, Stellaria media; conditions: Dosage 320 g/ha, pre-emergence
In short: as §1

[12] = test system: VIOTR; test: Pre-emergence action against VIOTR; assay type: in vivo, Viola tricolor; conditions: Dosage 320 g/ha, pre-emergence
In short: as §1

[13] = test system: VERPE; test: Pre-emergence action against VERPE; assay type: in vivo, Veronica persica; conditions: Dosage 320 g/ha, pre-emergence
In short: as §1

[14] = test system: ALOMY; test: Post-emergence action against ALOMY; assay type: in vivo, Alopecurus myosuroides; conditions: Dosage 80 g/ha, post-emergence
In short: (§2)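 Post-emergence foliar spray on greenhouse plants at the one-leaf stage, using wettable-powder or emulsion-concentrate formulations in water (600 to […], plus 0.2% wetting agent). Damage scored by eye roughly 3 weeks later against untreated plants: 0% = like control, 100% = dead.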

[15] = test system: AVEFA; test: Post-emergence action against AVEFA; assay type: in vivo, Avena fatua; conditions: post-emergence, dosage 80 g/ha, visual assessment about 3 weeks after treatment vs untreated controls
In short: as §2

[16] = test system: DIGSA; test: Post-emergence action against DIGSA; assay type: in vivo, Digitaria sanguinalis; conditions: dosage 80 g/ha, visual assessment about 3 weeks after treatment vs untreated controls
Protocol: Seeds of monocotyledonous and dicotyledonous weed and crop plants are laid out in sandy loam soil in wood-fiber pots, covered with soil and cultivated in a greenhouse under good growth conditions. 2 to 3 weeks after sowing, the test plants are treated at the one-leaf stage. The compounds of the invention, formulated in the form of wettable powders (WP) or as emulsion concentrates (EC), are then sprayed onto the green parts of the plants in the form of an aqueous suspension or emulsion at a water application rate equating to […], with addition of 0.2% wetting agent. After the test plants have been left to stand in the greenhouse under optimal growth conditions for about 3 weeks, the action of the preparations is assessed visually in comparison to untreated controls (herbicidal action in percent (%): 100% activity=the plants have died, 0% activity=like control plants). […] At the same time, inventive compounds leave Gramineae crops such as barley, wheat, rye, millet/Sorghum, corn or rice virtually undamaged when applied post-emergence, even at high active ingredient dosages. In addition, some substances are also harmless to dicotyledonous crops such as soya, cotton, oilseed rape, sugar beet or potatoes. Some of the compounds according to the invention have high selectivity and are therefore suitable for controlling unwanted vegetation in agricultural crops by the post-emergence method. The data of Tables B18 to B34 below illustrate, in an exemplary manner, the […] herbicidal action of the compounds according to the invention, the herbicidal activity being stated in percent.

[17] = test system: ECHCG; test: Post-emergence action against ECHCG; assay type: in vivo, Echinochloa crus-galli; conditions: post-emergence, dosage 80 g/ha, visual assessment about 3 weeks after treatment vs untreated controls
In short: as §2

[18] = test system: SETVI; test: Post-emergence action against SETVI; assay type: in vivo, Setaria viridis; conditions: post-emergence, dosage 80 g/ha, visual assessment about 3 weeks after treatment vs untreated controls
In short: as §2

[19] = test system: ABUTH; test: Post-emergence action against ABUTH; assay type: in vivo, Abutilon theophrasti; conditions: post-emergence, dosage 80 g/ha, visual assessment about 3 weeks after treatment vs untreated controls
In short: as §2

[20] = test system: AMARE; test: Post-emergence action against AMARE; assay type: in vivo, Amaranthus retroflexus; conditions: post-emergence, dosage 80 g/ha, visual assessment about 3 weeks after treatment vs untreated controls
In short: as §2

[21] = test system: MATIN; test: Post-emergence action against MATIN; assay type: in vivo, Matricaria inodora; conditions: post-emergence, dosage 80 g/ha, visual assessment about 3 weeks after treatment vs untreated controls
In short: as §2

[22] = test system: PHBPU; test: Post-emergence action against PHBPU; assay type: in vivo, Pharbitis purpurea; conditions: post-emergence, dosage 80 g/ha
In short: as §2

[23] = test system: STEME; test: Post-emergence action against STEME; assay type: in vivo, Stellaria media; conditions: post-emergence, dosage 80 g/ha
In short: as §2

[24] = test system: VIOTR; test: Post-emergence action against VIOTR; assay type: in vivo, Viola tricolor; conditions: post-emergence, dosage 80 g/ha
In short: as §2

[25] = test system: VERPE; test: Post-emergence action against VERPE; assay type: in vivo, Veronica persica; conditions: dosage 80 g/ha
In short: as §2

[26] = test system: POLCO; test: Pre-emergence action against POLCO; assay type: in vivo, Polygonum convolvulus; conditions: Dosage 320 g/ha, pre-emergence
In short: as §1

SMILES | Pre-emergence action against ALOMY (herbicidal activity in percent) [1] | Pre-emergence action against AVEFA (herbicidal activity) [2] | Pre-emergence action against DIGSA (herbicidal activity) [3] | Pre-emergence action against ECHCG (herbicidal activity) [4] | Pre-emergence action against LOLRI (herbicidal activity) [5] | SETVI (Table B8, pre-emergence herbicidal activity) [6] | Pre-emergence action against ABUTH (herbicidal activity) [7] | Pre-emergence action against AMARE (herbicidal activity) [8] | Pre-emergence action against MATIN [9] | Pre-emergence action against PHBPU [10] | Pre-emergence action against STEME [11] | Pre-emergence action against VIOTR [12] | Pre-emergence action against VERPE [13] | Post-emergence action against ALOMY [14] | Post-emergence action against DIGSA (herbicidal action in percent) [16] | Post-emergence action against ECHCG (herbicidal action in percent) [17] | Post-emergence action against SETVI (herbicidal action in percent) [18] | Post-emergence action against ABUTH (herbicidal action in percent) [19] | Post-emergence action against AMARE (herbicidal action in percent) [20] | Post-emergence action against MATIN (herbicidal action in percent) [21] | further results
Cc1c(C(=O)Nc2nnnn2C)ccc(C(F)(F)F)c1C(=O)CCl [1-22] | 90% | 100% | 100% | 100% | 100% | 100% | 100% | 100% | 100% | 90% | 100% | 100% | 100% | 90% | 100% | 90% | 90% | 90% | 90% | 90% | Post-emergence action against AVEFA (herbicidal action in percent) [15]: 90%; Post-emergence action against PHBPU [22]: 90; Post-emergence action against STEME [23]: 90; Post-emergence action against VIOTR [24]: 90; Post-emergence action against VERPE [25]: 80
CCn1nnnc1NC(=O)c1ccc(C(F)(F)F)c(C(=O)CCl)c1C [2-22] | 90% | 100% | 100% | 90% | 90% | 100% | 100% | 100% | 100% | 80% | 100% | 100% | 100% | 80% | 90% | 90% | 80% | 90% | 80% | 90% | Pre-emergence action against POLCO [26]: 80%; Post-emergence action against PHBPU [22]: 100; Post-emergence action against STEME [23]: 90; Post-emergence action against VIOTR [24]: 100; Post-emergence action against VERPE [25]: 80
